# From the Kinase Knowledgebase extract (Sharma et al. 2016)
# Target: PIK3CG (UniProt P48736)
# Assay: Inhibition of PIK3CG Kinase Activity
# Sequence of PIK3CG (P48736 whole entry, looked up): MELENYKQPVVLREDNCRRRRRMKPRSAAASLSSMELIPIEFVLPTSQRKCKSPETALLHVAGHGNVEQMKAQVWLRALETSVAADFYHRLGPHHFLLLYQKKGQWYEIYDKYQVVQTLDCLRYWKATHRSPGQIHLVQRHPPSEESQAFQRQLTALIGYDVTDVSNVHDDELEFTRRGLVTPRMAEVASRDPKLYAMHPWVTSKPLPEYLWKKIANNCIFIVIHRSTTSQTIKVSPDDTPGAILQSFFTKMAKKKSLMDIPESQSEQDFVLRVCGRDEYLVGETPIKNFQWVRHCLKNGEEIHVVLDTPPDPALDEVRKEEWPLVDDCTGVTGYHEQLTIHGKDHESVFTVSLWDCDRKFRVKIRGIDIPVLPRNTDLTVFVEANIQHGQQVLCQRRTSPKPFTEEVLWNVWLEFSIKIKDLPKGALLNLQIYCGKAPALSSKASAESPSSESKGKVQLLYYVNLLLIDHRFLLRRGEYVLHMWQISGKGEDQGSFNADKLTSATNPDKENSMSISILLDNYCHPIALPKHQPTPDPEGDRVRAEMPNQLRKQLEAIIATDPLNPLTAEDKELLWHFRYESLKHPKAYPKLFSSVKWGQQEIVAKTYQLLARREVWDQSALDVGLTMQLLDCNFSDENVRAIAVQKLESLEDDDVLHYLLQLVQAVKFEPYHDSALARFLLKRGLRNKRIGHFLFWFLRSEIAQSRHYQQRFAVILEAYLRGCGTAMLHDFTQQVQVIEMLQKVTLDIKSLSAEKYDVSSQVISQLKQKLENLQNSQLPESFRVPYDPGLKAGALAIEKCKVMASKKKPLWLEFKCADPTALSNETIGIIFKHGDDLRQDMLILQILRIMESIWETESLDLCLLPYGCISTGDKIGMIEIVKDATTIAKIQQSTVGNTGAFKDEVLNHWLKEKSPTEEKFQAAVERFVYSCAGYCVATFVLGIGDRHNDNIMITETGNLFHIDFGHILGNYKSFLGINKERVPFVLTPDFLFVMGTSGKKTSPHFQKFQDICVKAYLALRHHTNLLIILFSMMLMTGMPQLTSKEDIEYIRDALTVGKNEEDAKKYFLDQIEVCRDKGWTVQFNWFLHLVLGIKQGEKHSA
row,IC50 [nM],SMILES
1,65,O=C1NC(=S)S/C1=C\c1ccc2c(c1)N(C(=O)c1ccco1)CCO2
2,115,CN1CCN(Cc2ccccc2C(=O)N2CCOc3ccc(/C=C4\SC(=S)NC4=O)cc32)CC1
3,4010,O=C1NC(=S)S/C1=C\c1ccc2c(c1)N(C(=O)/C=C/c1cccc(C(F)(F)F)c1)CCCO2
4,1000,O=C1NC(=S)S/C1=C\c1ccc2c(c1)N(C(=O)C1CCCC1)CCCO2
5,4200,CCCCCCc1ccc(C(=O)N2CCCOc3ccc(/C=C4\SC(=S)NC4=O)cc32)cc1
6,640,CC(=O)Oc1ccc(OC(=O)N2CCCOc3ccc(/C=C4\SC(=S)NC4=O)cc32)cc1
7,4600,Cc1oc(C(C)(C)C)cc1C(=O)N1CCCOc2ccc(/C=C3\SC(=S)NC3=O)cc21
8,14,COc1cc(NC(=O)N2CCOc3ccc(/C=C4\SC(=S)NC4=O)cc32)cc(OC)c1
9,650,Cc1cc(C)cc(CN2CCOc3ccc(/C=C4\SC(=S)NC4=O)cc32)c1
10,1380,O=C1NC(=S)S/C1=C\c1ccc2c(c1)N(C(=O)c1ccc(Cl)c(Cl)c1)CCCO2

# Second part, the molecule before the results:
row,SMILES,IC50 [nM]
1,O=C1NC(=S)S/C1=C\c1ccc2c(c1)N(C(=O)C1CC1)CCCO2,115
2,CC1(C)C2CCC1(CS(=O)(=O)N1CCOc3ccc(/C=C4\SC(=S)NC4=O)cc31)CC2,330
3,O=C1NC(=S)S/C1=C\c1ccc2c(c1)N(C(=O)c1ccc3c(c1)C(=O)c1ccccc1C3=O)CCCO2,4990
4,O=C1NC(=S)S/C1=C\c1ccc2c(c1)N(C(=O)/C=C/c1ccccc1)CCCO2,1520
5,COc1cc(NC(=O)N2CCCOc3ccc(/C=C4\SC(=S)NC4=O)cc32)cc(OC)c1,1320
6,O=C1NC(=S)S/C1=C\c1ccc2c(c1)N(C(=O)c1ccc3occc3c1)CCCO2,1530
7,O=C1NC(=S)S/C1=C\c1ccc2c(c1)N(C(=O)Oc1ccccc1)CCCO2,424
8,N#Cc1ccc(C(=O)N2CCCOc3ccc(/C=C4\SC(=S)NC4=O)cc32)cc1,2610
9,Cc1ccc(OC(=O)N2CCCOc3ccc(/C=C4\SC(=S)NC4=O)cc32)cc1,704
10,Cc1ccc(NC(=O)N2CCCOc3ccc(/C=C4\SC(=S)NC4=O)cc32)cc1,3500
11,O=C1NC(=S)S/C1=C\c1ccc2c(c1)N(C(=O)COCc1ccccc1)CCCO2,1650
12,O=C1NC(=S)S/C1=C\c1ccc2c(c1)N(C(=O)Cc1cccs1)CCCO2,1140
